We go through one compound from patent publication US6509377B1, “Use of a 2-hydroxy-4-trifluoromethylbenzoic acid derivatives as inhibitors of the activation of the nuclear transcription factor NF-κB” (J. Uriach & Cia, S.A., priority 1999, dated 2003).

In one series the test system is NF-κB. Kind of series: Activation of NF-κB induced by LPS in human PBMC (EMSA). The series is classed as cell-based. As to conditions: human PBMCs, HTB 1-3 mM, 1 hour, then LPS 10 μg/ml 10 minutes. As to the method: Mononuclear cells (PBMC) were obtained from blood of healthy donors from the Hospital de Sant Pau (Barcelona) who had not taken any antiinflammatory drug during a period of not less than 2 weeks before blood extraction. Starting from a volume of about 80 ml of heparinized human blood (10 U/ml), this was diluted (1:1) with PBS (pH 7.4; Dulbecco) without calcium, magnesium nor sodium bicarbonate.
15 ml of Ficoll solution (d=1.077 at 20° C.; Biochrom KG) were placed in 50-ml Falcon tubes. To this solution a volume of about 25 ml per tube of the blood previously diluted with PBS was carefully added and the tubes were then centrifuged at 1,200 g for 20 minutes. Mononuclear cells concentrate on a whitish interphase between the plasma and the Ficoll solution. This interphase was collected with a Pasteur pipette and was diluted 1:1 with PBS. It was then centrifuged at 300 g for 10 min. The resulting pellet was resuspended in 50 ml PBS and was again centrifuged at 200 g for 10 min, in order to remove platelet contamination. […]
Prior to the various treatments, cell viability was determined by the Trypan Blue exclusion assay. […]
After incubation, PBMCs were washed twice with PBS and the degree of activation (binding to DNA) of the transcription factor NF-κB was determined using the EMSA assay, described in detail in Example 1.
A general note: In EMSA bound probe runs differently from free probe, usually more slowly.

A short description of series [1]: Cell viability of 1321N1 cells (EZ4U). It is filed as cell-based. Conditions: human, 1321N1 cells (astrocytoma), read-out: Percentage of cell viability. The protocol:
Several cell lines obtained from the American Type Culture Collection (ATCC) were cultured at 37° C. and under a 5% CO2 atmosphere. Each cell line was grown in an appropriate culture medium and within the exponential phase (Table I).
For the cell viability studies 24-well plates were used, where 0.5×10^6 cells/ml (for 24-hour studies), 0.25×10^6 cells/ml (for 48-hour studies) or 0.125×10^6 cells/ml (for 72-hour studies) were incubated. Next, different concentrations of HTB (1-3 mM) were added and cells were incubated for different time periods (37° C., 5% CO2). After incubation, the supernatant from each well was extracted, and cells were washed with culture medium without fetal calf serum. Then, the supernatant was extracted and 200 μl culture medium without fetal calf serum were added to each well. In addition, 20 μl substrate were added to determine cell viability. This method is based on the ability of viable cells to transform the colourless substrate into a coloured substance that is excreted to the supernatant (EZ4U, Biomedica Gmbh.). After incubating cells for 1 hour at 37° C. and 5% CO2, 200 μl supernatant were collected and the absorbance was measured at 450 nm.
The absorbance was also determined at 620 nm as a measure of the existing non-specific value.

As usually defined, the viability is a per cent measure of how many cells are alive, often set against a control. `O=C(O)c1ccc(C(F)(F)F)cc1O` [HTB, 2-hydroxy-4-trifluoromethylbenzoic acid]: the “inhibition of the activation of NF-κB induced by LPS” value in the series on NF-κB is on record as “markedly inhibits”. Moreover, in series [1] (1 mM HTB, 0 hours), the viability at 0 h, 1 mM is 100%. Moreover, the viability at 2 h, 1 mM in series [1] (1 mM HTB, 2 hours) was found to be 99.7%. Further, in series [1] (1 mM HTB, 5 hours), the viability at 5 h, 1 mM turned out to be 94.2%. The viability at 24 h, 1 mM in series [1] (1 mM HTB, 24 hours) came to 87.5%. In addition, in series [1] (3 mM HTB, 0 hours), the viability at 0 h, 3 mM is 100%. In addition, in series [1] (3 mM HTB, 2 hours), the viability at 2 h, 3 mM stood at 85.3%. Besides, in series [1] (3 mM HTB, 5 hours), the viability at 5 h, 3 mM amounted to 67.2%. Moreover, in series [1] (3 mM HTB, 24 hours), the viability at 24 h, 3 mM stood at 62.2%. Further, the viability at 48 h, 3 mM in series [1] (3 mM HTB, 48 hours) was found to be 17.8%.
